These results are taken from US10670605B2, “Cysteine reactive probes and uses thereof” (The Scripps Research Institute, priority 2015, dated 2020).

One test has as its target O114933_C98 (Homo sapiens, UniProt O14933). In words: Competitive isoTOP-ABPP, cell lysates. Type of test: binding. Conditions: 500 μm.
For a further test, the target named is USP16 C205 (Q9Y5T5) (Homo sapiens, UniProt Q9Y5T5). In words: Competitive isoTOP-ABPP in situ. Type of test: cell-based. To be noted: MDA-MB-231 cells.
For a further test, the target named is T1, WT-IDH1 (C269) (Homo sapiens, UniProt O75874).
T1 construct: Full length cDNAs encoding for IDH1 (Open Biosystems, Clone ID: 3880331) and IMPDH2; His6 (C); made in house; host or cells: E. coli BL21(DE3)
In words: Blockade of IA-rhodamine labeling of WT-IDH1. Type of test: binding. To be noted: 2 μM protein in MDA-MB-231 lysate.

The target of a further test is ACO2 C385 (Q99798) (Homo sapiens, UniProt Q99798). In words: Competitive isoTOP-ABPP in situ. Type of test: cell-based. To be noted: MDA-MB-231 cells.
The next test has as its target T2, PRMT1 (C109) (Homo sapiens, UniProt Q99873).
T2 construct: Full length PRMT1 subcloned into pET45b (+) (Novagen) was previously generated by the Cravatt lab; inferred from Ni-NTA purification and the pET45b vector; made in house; host or cells: E. coli BL21(DE3)
In words: Blockade of IA-rhodamine labeling of recombinant PRMT1 (gel-based ABPP). Type of test: binding.

A further test addresses T3, USP22 C44 (Q9UPT9) (Homo sapiens, UniProt Q9UPT9).
T3 sequence (Q9UPT9 1-525): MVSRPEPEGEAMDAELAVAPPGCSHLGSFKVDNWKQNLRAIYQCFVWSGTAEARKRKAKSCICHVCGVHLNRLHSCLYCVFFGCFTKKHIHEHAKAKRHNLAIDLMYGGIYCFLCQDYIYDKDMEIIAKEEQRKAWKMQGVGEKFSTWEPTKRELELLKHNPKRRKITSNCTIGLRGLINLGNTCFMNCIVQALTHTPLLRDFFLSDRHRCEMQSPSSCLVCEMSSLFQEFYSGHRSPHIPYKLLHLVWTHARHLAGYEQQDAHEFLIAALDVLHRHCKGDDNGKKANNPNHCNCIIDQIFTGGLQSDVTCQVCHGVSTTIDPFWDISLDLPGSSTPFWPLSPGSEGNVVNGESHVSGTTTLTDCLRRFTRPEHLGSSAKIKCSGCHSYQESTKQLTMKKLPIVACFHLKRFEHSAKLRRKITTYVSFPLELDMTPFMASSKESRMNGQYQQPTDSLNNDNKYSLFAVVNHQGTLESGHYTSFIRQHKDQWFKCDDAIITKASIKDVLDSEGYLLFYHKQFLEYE
In words: Competitive isoTOP-ABPP, cell lysates. The format is binding.

For another test, the target named is PES1 C272 (O00541) (Homo sapiens, UniProt O00541). In words: Competitive isoTOP-ABPP, cell lysates. Type of test: binding. To be noted: 500 μM, invitro.
The target of test [1] is cysteines in MDA-MB-231 and Ramos cells (Homo sapiens, UniProt Q99986). In words: Competitive isoTOP-ABPP in situ (fragment-treated cells). The format is cell-based.
Test [2] deals with cysteines in MDA-MB-231 and Ramos cells (Homo sapiens, UniProt Q13613). The test is described as above. Type of test: cell-based. To be noted: 200 μM, insitu.
The target of test [3] is cysteines in MDA-MB-231 and Ramos cells (Homo sapiens, UniProt A2A288). Described as above. The format is cell-based. To be noted: 200 μM, insitu, ramos.
Test [4] deals with cysteines in MDA-MB-231 and Ramos cells (Homo sapiens, UniProt Q6PJG6). Described as above. Type of test: cell-based. To be noted: 200 μM, insitu, ramos.
For test [5], the target named is cysteines in MDA-MB-231 and Ramos cells (Homo sapiens, UniProt Q9P2X3). Described as above. Type of test: cell-based. Conditions: 200 μM, insitu, 231.
Chain of cysteines in MDA-MB-231 and Ramos cells (Homo sapiens, UniProt Q9P2X3) (Q9P2X3 whole entry): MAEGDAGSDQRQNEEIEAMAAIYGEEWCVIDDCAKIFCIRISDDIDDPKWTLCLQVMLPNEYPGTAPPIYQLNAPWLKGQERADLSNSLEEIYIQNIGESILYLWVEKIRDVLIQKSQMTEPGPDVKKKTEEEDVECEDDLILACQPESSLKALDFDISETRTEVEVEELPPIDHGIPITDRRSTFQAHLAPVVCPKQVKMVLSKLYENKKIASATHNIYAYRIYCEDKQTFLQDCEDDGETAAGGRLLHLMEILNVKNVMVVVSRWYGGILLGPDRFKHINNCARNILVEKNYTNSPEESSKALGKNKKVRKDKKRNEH

Chain of PES1 C272 (O00541) (O00541 whole entry, looked up, the tested form may be a part): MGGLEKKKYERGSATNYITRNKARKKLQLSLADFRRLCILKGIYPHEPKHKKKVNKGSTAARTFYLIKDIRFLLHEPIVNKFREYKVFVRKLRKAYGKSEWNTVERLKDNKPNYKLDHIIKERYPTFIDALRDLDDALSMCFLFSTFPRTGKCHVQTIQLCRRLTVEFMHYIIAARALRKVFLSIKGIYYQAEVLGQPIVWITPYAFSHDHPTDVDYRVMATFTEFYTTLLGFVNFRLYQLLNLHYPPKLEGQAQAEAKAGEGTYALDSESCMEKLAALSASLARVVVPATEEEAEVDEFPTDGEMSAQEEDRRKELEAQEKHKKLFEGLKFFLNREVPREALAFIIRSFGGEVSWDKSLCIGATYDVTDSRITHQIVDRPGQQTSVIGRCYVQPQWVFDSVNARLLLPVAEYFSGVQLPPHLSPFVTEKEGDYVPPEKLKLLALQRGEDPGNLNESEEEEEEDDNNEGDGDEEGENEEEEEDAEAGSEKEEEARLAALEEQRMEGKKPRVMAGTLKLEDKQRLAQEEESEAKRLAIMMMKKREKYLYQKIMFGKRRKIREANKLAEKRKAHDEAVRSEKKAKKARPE
Chain of O114933_C98 (O14933 whole entry): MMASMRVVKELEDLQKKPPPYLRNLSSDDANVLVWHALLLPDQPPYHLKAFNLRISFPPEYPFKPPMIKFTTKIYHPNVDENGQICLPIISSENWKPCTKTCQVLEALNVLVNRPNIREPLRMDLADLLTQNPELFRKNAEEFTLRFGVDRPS
T1 sequence (O75874 whole entry): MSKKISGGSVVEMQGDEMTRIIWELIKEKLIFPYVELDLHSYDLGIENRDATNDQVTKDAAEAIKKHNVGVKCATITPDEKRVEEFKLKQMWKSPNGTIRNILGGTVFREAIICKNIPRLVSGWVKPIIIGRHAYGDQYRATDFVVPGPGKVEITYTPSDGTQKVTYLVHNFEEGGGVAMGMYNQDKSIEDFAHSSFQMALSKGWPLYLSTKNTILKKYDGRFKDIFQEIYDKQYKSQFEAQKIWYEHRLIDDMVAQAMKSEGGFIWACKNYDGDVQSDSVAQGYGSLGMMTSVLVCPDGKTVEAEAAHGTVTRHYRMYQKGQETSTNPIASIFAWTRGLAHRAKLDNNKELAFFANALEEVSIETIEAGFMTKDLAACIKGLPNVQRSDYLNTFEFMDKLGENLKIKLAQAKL
Chain of cysteines in MDA-MB-231 and Ramos cells (Homo sapiens, UniProt A2A288) (A2A288 whole entry): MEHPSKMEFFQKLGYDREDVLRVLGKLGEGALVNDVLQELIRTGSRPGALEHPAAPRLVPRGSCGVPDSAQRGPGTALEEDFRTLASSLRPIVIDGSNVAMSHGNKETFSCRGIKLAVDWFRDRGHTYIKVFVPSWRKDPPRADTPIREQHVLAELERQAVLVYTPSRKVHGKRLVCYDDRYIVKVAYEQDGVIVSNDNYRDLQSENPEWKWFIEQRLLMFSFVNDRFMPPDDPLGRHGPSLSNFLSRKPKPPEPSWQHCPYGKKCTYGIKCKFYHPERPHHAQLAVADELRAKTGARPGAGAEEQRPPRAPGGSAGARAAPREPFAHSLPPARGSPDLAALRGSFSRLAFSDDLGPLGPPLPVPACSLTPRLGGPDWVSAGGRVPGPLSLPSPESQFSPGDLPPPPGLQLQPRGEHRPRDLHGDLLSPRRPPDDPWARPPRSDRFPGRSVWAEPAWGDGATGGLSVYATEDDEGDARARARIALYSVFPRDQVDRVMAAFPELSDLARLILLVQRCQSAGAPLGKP
Chain of USP16 C205 (Q9Y5T5) (Q9Y5T5 whole entry): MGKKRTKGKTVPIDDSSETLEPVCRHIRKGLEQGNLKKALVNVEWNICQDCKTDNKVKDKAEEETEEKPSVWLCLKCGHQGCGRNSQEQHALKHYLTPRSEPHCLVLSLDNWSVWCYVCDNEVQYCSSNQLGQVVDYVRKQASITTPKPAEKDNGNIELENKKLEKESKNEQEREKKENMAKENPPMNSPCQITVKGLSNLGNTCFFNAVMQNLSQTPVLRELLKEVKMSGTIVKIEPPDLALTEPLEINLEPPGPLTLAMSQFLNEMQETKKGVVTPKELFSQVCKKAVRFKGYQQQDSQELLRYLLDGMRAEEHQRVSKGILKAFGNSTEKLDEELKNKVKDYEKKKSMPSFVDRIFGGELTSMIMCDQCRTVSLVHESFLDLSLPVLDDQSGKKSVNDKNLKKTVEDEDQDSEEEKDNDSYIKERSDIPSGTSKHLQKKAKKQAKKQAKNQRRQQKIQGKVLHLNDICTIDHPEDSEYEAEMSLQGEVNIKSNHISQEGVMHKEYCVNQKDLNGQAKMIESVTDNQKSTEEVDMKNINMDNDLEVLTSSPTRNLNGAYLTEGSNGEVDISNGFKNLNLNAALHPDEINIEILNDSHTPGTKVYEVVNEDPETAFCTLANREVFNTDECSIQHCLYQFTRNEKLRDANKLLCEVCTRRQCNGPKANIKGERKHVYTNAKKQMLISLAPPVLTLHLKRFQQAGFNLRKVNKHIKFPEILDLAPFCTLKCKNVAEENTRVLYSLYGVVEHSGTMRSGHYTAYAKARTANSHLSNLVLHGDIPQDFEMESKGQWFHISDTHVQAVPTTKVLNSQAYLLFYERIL
T2 sequence (Q99873 11-371 limits assumed): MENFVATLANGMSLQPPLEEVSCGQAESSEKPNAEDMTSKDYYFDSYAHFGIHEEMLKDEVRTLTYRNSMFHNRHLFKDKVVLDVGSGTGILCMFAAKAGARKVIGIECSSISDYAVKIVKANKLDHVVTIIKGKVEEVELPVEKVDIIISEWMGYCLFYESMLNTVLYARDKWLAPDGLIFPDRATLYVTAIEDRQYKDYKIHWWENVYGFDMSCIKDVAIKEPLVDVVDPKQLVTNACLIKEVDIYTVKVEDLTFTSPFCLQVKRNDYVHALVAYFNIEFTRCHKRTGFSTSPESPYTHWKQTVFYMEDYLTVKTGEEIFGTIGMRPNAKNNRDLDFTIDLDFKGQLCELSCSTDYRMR
Chain of ACO2 C385 (Q99798) (Q99798 28-780): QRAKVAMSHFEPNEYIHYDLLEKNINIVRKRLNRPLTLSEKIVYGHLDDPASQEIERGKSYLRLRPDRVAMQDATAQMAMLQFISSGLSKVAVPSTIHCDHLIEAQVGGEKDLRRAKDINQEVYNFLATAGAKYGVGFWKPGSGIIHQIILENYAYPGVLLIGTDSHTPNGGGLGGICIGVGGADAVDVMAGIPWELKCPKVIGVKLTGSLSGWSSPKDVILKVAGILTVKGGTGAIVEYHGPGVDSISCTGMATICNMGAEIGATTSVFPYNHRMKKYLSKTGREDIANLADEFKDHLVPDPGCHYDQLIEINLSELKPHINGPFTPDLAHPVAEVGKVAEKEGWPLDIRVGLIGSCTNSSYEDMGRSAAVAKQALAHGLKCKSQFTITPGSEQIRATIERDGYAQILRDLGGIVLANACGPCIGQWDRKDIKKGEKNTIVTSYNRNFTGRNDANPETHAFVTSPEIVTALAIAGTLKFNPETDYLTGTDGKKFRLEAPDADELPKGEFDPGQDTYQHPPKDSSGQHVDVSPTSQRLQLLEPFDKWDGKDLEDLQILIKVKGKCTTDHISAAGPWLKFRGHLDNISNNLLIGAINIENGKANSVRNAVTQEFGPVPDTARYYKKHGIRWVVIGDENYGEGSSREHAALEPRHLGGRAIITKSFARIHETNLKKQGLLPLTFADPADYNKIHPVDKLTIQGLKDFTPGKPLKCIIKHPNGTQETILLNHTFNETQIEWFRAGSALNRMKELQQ
Chain of cysteines in MDA-MB-231 and Ramos cells (Homo sapiens, UniProt Q99986) (Q99986 whole entry, the tested form may be a part): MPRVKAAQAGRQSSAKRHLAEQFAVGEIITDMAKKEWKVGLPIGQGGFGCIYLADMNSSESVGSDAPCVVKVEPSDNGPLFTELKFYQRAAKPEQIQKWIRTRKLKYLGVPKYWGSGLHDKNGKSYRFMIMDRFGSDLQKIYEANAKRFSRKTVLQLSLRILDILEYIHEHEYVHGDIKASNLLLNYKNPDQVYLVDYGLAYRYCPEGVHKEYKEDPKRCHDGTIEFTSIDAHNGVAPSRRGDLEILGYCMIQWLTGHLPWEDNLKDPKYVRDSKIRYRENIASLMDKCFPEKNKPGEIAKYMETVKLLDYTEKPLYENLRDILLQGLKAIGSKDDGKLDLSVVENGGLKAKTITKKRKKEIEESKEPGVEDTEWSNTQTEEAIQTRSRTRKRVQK

With `O=C(CCl)NC1C(O)OC(CO)C(O)C1O` (mixture of isomers) [compound 44], the “isoTOP-ABPP reactivity profile ratio, O114933_C98” value on O114933_C98 (in-vitro_ramos_231) came to 2.0.
Take `COc1ccc2c(c1)CCCN2C(=O)CCl` [compound 2]: the “isoTOP-ABPP reactivity profile (ratio) 2_200 μM_in-situ_231” value stood at 7.9 on USP16 C205 (Q9Y5T5) (fragment 2 at 200 μM) and 20.0 on ACO2 C385 (Q99798) (fragment 2 at 200 μM). For the same compound, the IC50 – broadly, the concentration needed to halve the response being measured – against WT-IDH1 (C269) was over 50 µM.
For the compound `O=C(CCl)Nc1cc(C(F)(F)F)cc(C(F)(F)F)c1` [compound 3], on PRMT1 (C109) (recombinant WT-PRMT1 in cell lysate), the “blockade of IA-rhodamine labeling of PRMT1 (in words)” value was “inactive”.
Turning to `COc1ccc(C2CC(c3cccs3)=NN2C(=O)CCl)cc1` (stereo not drawn) [compound 4], the “isoTOP-ABPP reactivity profile (ratio) 4_100 μM_in-situ_231” value on USP16 C205 (Q9Y5T5) (fragment 4 at 100 μM) amounted to 20.0; at ACO2 C385 (Q99798) (fragment 4 at 100 μM) it was 1.0.
`C=CC(=O)N(c1ccccc1)c1ccc(Br)cc1` [compound 5]: the “isoTOP-ABPP ratio, Q9UPT9_C44” value at USP22 C44 (Q9UPT9) (500 μM, invitro, ramos) amounted to 20.0. Also, the “isoTOP-ABPP ratio, O00541_C272” value on PES1 C272 (O00541) (ramos) is given as 12.3.
As for `O=C(CCl)N1CCN(S(=O)(=O)c2ccccc2F)CC1` [compound 10], the “isoTOP-ABPP ratio, O00541_C272” value at PES1 C272 (O00541) (ramos) is listed as 2.2. Moreover, in [1] (200 μM, insitu, ramos), the “isoTOP-ABPP ratio, cysteine Q99986_C50” value is reported as 0 .7.
Take `Cn1cc(S(=O)(=O)N2CCOCC2)cc1C(=O)NC(=O)CCl` [compound 11]: the “isoTOP-ABPP ratio, O00541_C272” value at PES1 C272 (O00541) (ramos) turned out to be 4.2. Also, the IC50 at PRMT1 (C109) (recombinant WT-PRMT1 1 μM in cell lysate, fragment 1 h) amounted to 36 µM.
Regarding `O=C(CCl)NCCc1c[nH]c2ccccc12` [compound 13], the “isoTOP-ABPP ratio, O00541_C272” value on PES1 C272 (O00541) (231) amounted to 1.7.
As to `O=C(CCl)N1CCC(C(O)(c2ccccc2)c2ccccc2)CC1` [compound 20], the midpoint of inhibition on WT-IDH1 (C269), the IC50, lay at 2.9 µM.
Regarding `O=C(CCl)NC12CC3CC(CC(C3)C1)C2` [compound 21], the “isoTOP-ABPP ratio, cysteine Q13613_C117” value in test [2] (231) is 0.9.
On to `CC(C)CCOCCNC(=O)CCl` [compound 27], for which the “isoTOP-ABPP ratio (reactivity profile), Q9UPT9_C44” value on USP22 C44 (Q9UPT9) (500 μm in-vitro ramos) is 1.2; on USP22 C44 (Q9UPT9) (500 μm in-vitro ramos_231), 20.0.
On to `O=C(CCl)N1CCN(CC(=O)N2CCOCC2)CC1` [compound 29], for which the “isoTOP-ABPP ratio A2A288_C367” value in test [3] was found to be 1.3. In addition, in test [2] (ramos), the “isoTOP-ABPP ratio Q13613_C117” value is on record as 1.5. Moreover, the “isoTOP-ABPP ratio Q6PJG6_C673” value in test [4] is on record as 4.6.
`CCN(CC)c1ccc(S(N)(=O)=O)cc1NC(=O)CCl` [compound 30]: at USP22 C44 (Q9UPT9) (500 μm, in-vitro_ramos), the “isoTOP-ABPP reactivity ratio, Q9UPT9_C44” value stood at 1.7.
Regarding `C=CC(=O)N(Cc1cccnc1)c1cc(C(F)(F)F)cc(C(F)(F)F)c1` [compound 31], in [5], the “isoTOP-ABPP ratio Q9P2X3_C195” value was found to be 0.5. The “isoTOP-ABPP ratio A2A288_C367” value in [3] is given as 1.9. In addition, the “isoTOP-ABPP ratio Q6PJG6_C673” value in test [4] worked out at 20.0.
For the compound `N#CC(=Cc1ccc(-c2ccccc2Cl)o1)C(N)=O` [compound 42], on O114933_C98 (in-vitro_ramos), the “isoTOP-ABPP reactivity profile ratio, O114933_C98” value was 1.0.
With `COc1cc(NC(=O)CCl)cc(OC)c1` [compound 43], the “isoTOP-ABPP reactivity profile ratio, Q9UPT9_C44” value at USP22 C44 (Q9UPT9) (500 μm, in-vitro_ramos) turned out to be 2.1.
For `CC1CCc2ccccc2N1C(=O)CCl` (stereo not drawn) [compound 45], in [5], the “isoTOP-ABPP ratio Q9P2X3_C195” value amounted to 20.0. Also, the “reactivity profile of liganded cysteine Q99986_C50 with fragment electrophile (isoTOP-ABPP ratio)” value in [1] (cysteine Q99986_C50, fragment 200 μM, in situ, 231 (MDA-MB-231) cells) was 4.1.
In the case of `O=C(CCl)N1CCc2cc(Br)ccc21` [compound 50], the “isoTOP-ABPP reactivity profile ratio, O114933_C98” value on O114933_C98 (in-vitro_ramos_231) came to 1.5.
Consider `O=C(CCl)Nc1ccc(-c2ccccc2)cc1` [compound 52], for which the “isoTOP-ABPP reactivity profile ratio, O114933_C98” value at O114933_C98 (in-vitro_ramos) and at O114933_C98 (in-vitro_ramos_231) was 1.4 in each case.
As for `C=CC(=O)N1CCC(Cc2ccccc2)CC1` [compound 53], on O114933_C98 (in-vitro_ramos), the “isoTOP-ABPP reactivity profile ratio, O114933_C98” value was found to be 1.0.
